Article PMC4153677, “Probing the Activity Modification Space of the Cysteine Peptidase Cathepsin K with Novel Allosteric Modifiers” (PLoS ONE, 2014)

How the values were obtained:
Format in all cases: biochemical
[1] = molecular target: T1, Recombinant human cathepsin K (Homo sapiens, UniProt P43235); test: Thermal stability of cathepsin K at pH 7.4 in the presence of modifiers; details: for stability: ln(sf), sf = ratio of half-lives in the presence and absence of modifier: 37 °C and pH 7.4
T1 construct: made in house
T1 sequence (P43235 115-329): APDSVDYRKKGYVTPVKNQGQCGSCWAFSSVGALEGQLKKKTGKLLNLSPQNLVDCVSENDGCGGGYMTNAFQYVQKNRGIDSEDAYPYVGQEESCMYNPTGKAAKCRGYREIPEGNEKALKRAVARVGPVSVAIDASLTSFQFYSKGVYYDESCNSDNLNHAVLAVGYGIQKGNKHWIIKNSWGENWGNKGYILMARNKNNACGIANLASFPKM
Description: Cathepsin K was incubated at 37°C in 50 mM Hepes buffer pH 7.40 containing 1 mM EDTA and 5 mM DTT in the presence or absence of each modifier. The final enzyme concentration was 0.2 µM and final compounds concentrations were 2 mM, except compound 2, which was used at a concentration of 1 mM. All experiments were performed in Eppendorf Protein LoBind Tubes to minimize the adsorption of proteins on tube walls. Aliquots were withdrawn from the reaction mixtures at regular time intervals and their residual activity measured using the substrate Z-FR↓AMC (5 µM final concentration). Inactivation curves had exponential profiles that were fitted with the mathematical model for one-phase exponential decay to determine the half-life of the enzyme in each reaction mixture.

[2] = molecular target: T1, Recombinant human cathepsin K; test: Collagenolytic assays (calf skin collagen, SDS-PAGE); design: key to collagen: qualitative value: qualitative values of 1 and 0 were used to signify inhibition and lack thereof, respectively; qualitative values of 1 and 0 were used to signify inhibition and lack thereof, respectively; a value of -1 was used to describe the concentration-dependent roles of glycosaminoglycans; details: for collagen: qualitative value: activity modification matrix
Description: The use of synthetic substrates is practical for the determination of the mechanisms of modification. […] Therefore, all modifiers were also tested with two macromolecular substrates, calf skin collagen and azocasein. The collagenolytic activity was tested quantitatively by following the fragmentation of the characteristic type I collagen pattern into smaller products on SDS-PAGE after incubation of the samples with cathepsin K in the presence and absence of modifiers.
Soluble calf skin collagen (Worthington Biochemical Corporation, USA) was diluted in 100 mM sodium acetate buffer pH 5.50 containing 1 mM EDTA and 5 mM DTT to a final concentration of 0.5 mg/ml. Experiments were started by addition of cathepsin K (final enzyme concentration 0.6 µM) to the reaction mixture containing collagen and increasing concentrations of modifier. All assays were performed at 28°C with shaking on an Eppendorf Thermomixer Comfort. Samples were incubated for 2 hours and the reactions then blocked by addition of E-64 to a final concentration of 1 µM. 10 µg of digested collagen were analyzed by SDS-PAGE on 8% polyacrylamide gels and protein bands visualized by Coomassie Brilliant Blue R-250 staining.

[3] = molecular target: T1, Recombinant human cathepsin K; test: Azocasein degradation assays; details: for remaining activity: pH 5.5, substrate azocasein 3 mg/ml, 0.1 µM cathepsin K, 30 min 37°C, pH 5.50, read-out: Residual activity; for azocasein: fraction of residual enzyme activity: value of 1 equals the activity of unmodified enzyme, activity modification matrix; for IC 50 relative to K A: azocasein IC50 versus K A with Z-FR↓AMC; for IC50: azocasein degradation
From the text: Figure 4 Effect of modifiers on the degradation of macromolecular substrates. (A) Effect of increasing concentrations of compounds 1 and 2 on the degradation of calf skin collagen. Molecular mass standards are given in kDa and positions of α, β and γ chains of intact collagen are marked by arrows. (B) Effect of modifiers on azocasein degradation. (C) Effect of glycosaminoglycans and clusterin on azocasein degradation. Two different concentrations of each glycosaminoglycan were used in the experiments (10 µg/ml and 200 µg/ml). Error bars in panels B and C represent the SEM of three experiments. All experiments were performed in 100 mM sodium acetate buffer pH 5.50 containing 1 mM EDTA and 5 mM DTT, as described in detail in the Materials and Methods section. Abbreviations: CPD – compound, CS – chondroitin sulfate, DS – dermatan sulfate, HP – heparin.
Azocasein (Sigma-Aldrich, USA) was dissolved in 100 mM sodium acetate buffer pH 5.50 containing 1 mM EDTA and 5 mM DTT at a concentration of 3 mg/ml. Samples were incubated with 0.1 µM cathepsin K for 30 min at 37°C in the presence of each compound. […] Reactions were stopped by addition of trichloroacetic acid (final concentration 5% v/v), centrifuged, clear supernatants mixed with 0.5 M NaOH and the concentrations of solubilized peptides determined by measuring the absorbance at 440 nm. All experiments were performed in triplicates and appropriate blanks were run to take into account the absorption of azocasein and compounds alone. IC 50 values were determined as described previously.

[4] = molecular target: T1, Recombinant human cathepsin K; test: Kinetic measurements, hydrolysis of the fluorogenic substrate Z-FR↓AMC (general modifier mechanism); design: key to α (coefficient, effect of modifier on the affinity for the substrate) / β (coefficient, effect of modifier on the catalytic rate): dimensionless coefficients multiplying KS (α) and kcat (β); details: for Z-FRAMC: geometric mean of residual activities (vA): at 0.1×Km and 10×Km substrate, modifier 10×KA, calculated with Equation 1 from α and β of Table 3, unmodified enzyme = 1.00; for α (coefficient, effect of modifier on the affinity for the substrate) / Kd / Kinetic mechanism of modification / β (coefficient, effect of modifier on the catalytic rate): substrate Z-FR↓AMC; for α (coefficient, effect of modifier on the affinity for the substrate) / Kd / β (coefficient, effect of modifier on the catalytic rate): pH 5.50, 25°C, 0.5 nM enzyme; for Kd: read-out: K A (equilibrium dissociation constant of the EA complex); for Kinetic mechanism of modification: from combinations of α and β
Description: All modifiers were tested for their effect on the hydrolysis of the low molecular mass synthetic substrate Z-FR↓AMC. Since all progress curves were linear from the beginning of the reaction, initial velocities were calculated from the slopes by linear regression. […] The basic mechanism considered for the analysis of the interactions was the general modifier mechanism shown in Figure 2, in which the effect of modifier is determined by the values of the coefficients α and β that multiply the kinetic parameters K S, K A (α) and k cat (β). In the thermodynamic box embodied in Figure 2, the reciprocal of the coefficient α represents the allosteric coupling constant that characterizes energy linkage between the modifier and the substrate, while a […] represents the effect exerted by the modifier on catalysis. The specific velocity plot was used for the primary screening of the kinetic behavior of the modifiers (Equation 2), as it allows an immediate judgment of the type of interaction and to gather preliminary estimates of the coefficients α and β, as well as of the dissociation constant of the modifier. Refinement was then performed by fitting the rate Equation 1 to data.
Figure 3 Kinetic mechanisms of the identified modifiers. All compounds were characterized by a combination of specific velocity plots (upper panels) and titration curves recorded at fixed substrate concentrations (lower panels). All experiments were performed at 25±1°C in 100 mM sodium acetate buffer pH 5.50 containing 1 mM EDTA and 2.5 mM DTT using the fluorogenic substrate Z-FR↓AMC and at a final enzyme concentration of 0.5 nM.
All kinetic measurements were performed in 100 mM sodium acetate buffer pH 5.50 containing 1 mM EDTA and 2.5 mM dithiothreitol (DTT) in single-use acrylic cuvettes (1×1 cm) thermostatted at 25±1°C with magnetic stirring. The hydrolysis of Z-FR↓AMC was followed fluorometrically at λex 383 nm and λem 455 nm. All tested modifiers were analyzed spectroscopically to determine their absorption properties under the conditions used in the assays. When necessary, appropriate corrections were made to the calculated reaction rates to take into account the inner filter effect.
The effects of the modifiers on enzymatic activity were analyzed with the general modifier mechanism which describes the interaction between enzyme (E), substrate (S) and modifier (A), as shown in Figure 2. Assuming that binding of A to E and ES is at quasi-equilibrium and that steady-state conditions are established in the fluxes around ES and ESA (i.e. the catalytic steps), the reaction rate for the mechanism in Figure 2 is defined by Equation 1: [drawing 2] (1) where v 0 is the reaction rate in the absence of modifier, K A is the equilibrium dissociation constant of the EA complex, α and β are dimensionless coefficients and σ = [S]/K m, approximated to [S]/K s. To determine the mechanism of interaction, plot the kinetic data and calculate preliminary values of the interaction parameters, the specific velocity plot was used. For this purpose, Equation 1 is rewritten as:
The plot of v 0/v A versus σ/(1+σ) produces straight lines with intersection points at v 0/v A = 1, regardless of the interaction mechanism. The parameters α, β and K A are determined by replotting the extrapolated values of the straight lines at σ/(1+σ) = 0 (a) and σ/(1+σ) = 1 (b) versus 1/[A] in the form: [drawing 4] (3) [drawing 5] (4)

[5] = substrate calf skin collagen 0.5 mg/ml, 0.6 µM cathepsin K, 2 hours 28°C, pH 5.50, estimated
[6] = compounds up to 2 mM (compound 2: 1 mM)

Row | SMILES | stability: ln(sf), sf = ratio of half-lives in the presence and absence of modifier [1] | collagen: qualitative value [2] | IC50 [2, 5] | remaining activity [3, 6] [%] | Z-FRAMC: geometric mean of residual activities (vA) [4] | α (coefficient, effect of modifier on the affinity for the substrate) [4] | Kd [4] [µM] | azocasein: fraction of residual enzyme activity [3] | Kinetic mechanism of modification [4] | β (coefficient, effect of modifier on the catalytic rate) [4] | IC 50 relative to K A [3] | IC50 [3] [µM] | further results
1 | O=C(Nc1ccc(C(=O)O)c(O)c1)c1ccccc1 [Compound 3, N-Benzoyl-p-aminosalicylic acid] | 0.26 | 0 | n.i. | 86 ± 4 | 0.42 | 1.7±0.5 | 110 ± 20 | – | – | – | – | – | –
2 | COC(=O)CNC1CC(=O)N(c2ccc(OC)cc2)C1=O (centres unmarked) [Compound 8, Methyl N-[1-(4-methoxyphenyl)-2,5-dioxopyrrolidin-3-yl]glycinate] | 0.02 | 0 | n.i. | 101 ± 3 | 0.60 | 0.31±0.06 | 1100 ± 200 | 1.04 | hyperbolic mixed inhibitors with uncompetitive character | 0.31±0.06 | – | – | Effect on azocasein degradation [3, 6]: ineffective; α (coefficient, effect of modifier on the affinity for the substrate) ([4]; listed as compound 8): < 1; β (coefficient, effect of modifier on the catalytic rate) ([4]; listed as compound 8): < 1
3 | NCC1CCN(CCc2ccccc2)CC1 [Compound 6, 1-[1-(2-Phenylethyl)-4-piperidinyl]-methanamine] | 0.18 | 0 | n.i. | 77 ± 8 | 0.65 | 3.0±0.2 | 270 ± 50 | 0.77 | hyperbolic competitive inhibitor | 1 | about 4 fold | 1100 ± 240 | –
4 | O=C(O)C(Cc1ccccc1-c1ccccc1)C(=O)O [Compound 4, (2-Biphenylylmethyl) malonic acid] | 0.41 | 0 | n.i. | 90 ± 3 | 0.70 | 5.6±1.2 | 100 ± 40 | – | hyperbolic mixed modifiers with a dual behavior as inhibitors or activators depending on substrate concentration | 1.5±0.3 | – | – | α (coefficient, effect of modifier on the affinity for the substrate) ([4]; listed as compound 4): > 1; β (coefficient, effect of modifier on the catalytic rate) ([4]; listed as compound 4): > 1
5 | Nc1cc(C(=O)O)ccc1NCC1CCCO1 (centres unmarked) [Compound 1, 3-Amino-4-[(tetrahydro-2-furanylmethyl)amino] benzoic acid] | 0.74 | 1 | – | 74 ± 9 | 0.37 | – | 190 ± 20 | 0.74 | – | 0.55±0.25 | about 4 fold | 730 ± 190 | Increase of stability (half-life) of cathepsin K ([1]; pH 7.4, 37°C, versus enzyme only): about 2 fold; Effect on degradation of calf skin collagen ([2]; SDS-PAGE, increasing concentrations of modifier): concentration-dependent inhibitory effect; IC50 ([2]; degradation of calf skin collagen, read-out: IC 50 (estimated)): ~1000 µM; IC50 ([2]; substrate calf skin collagen 0.5 mg/ml, 0.6 µM cathepsin K, 2 hours 28°C, pH 5.50, estimated, read-out: IC 50): 1000 µM
